# Experimental data reported in patent publication US5789439A, “Pharmaceutical use of forskolin derivatives” (Nippon Kayaku Kabushiki Kaisha, priority 1990, dated 1998).
# Counter-ions that a name gives are not always drawn.
# Key:
# [1] = tested on: collagen-induced aggregation; experiment: Collagen-induced aggregation after intravenous administration to healthy adults; format: in vivo, healthy adults (human); conditions: i.v. 0.8 μg/kg/min for one hour, mean of four subjects
# Procedure: A freeze-dried preparation comprising NKH-477 was dissolved in a physiological saline and administered intravenously to four healthy adults at a rate of 0.8 μg/kg/min for one hour. The degrees of ADP-induced aggregation, epinephrine-induced aggregation and collagen-induced aggregation upon end of administration were measured and compared with those before administration (each figure is the average of measurements on the four subjects).
# [2] = tested on: total peripheral vascular resistance; experiment: Effect on peripheral vascular resistance in anesthetized dogs; format: in vivo, dog; conditions: for Change in total peripheral vascular resistance: mean ± SE
# Procedure: (2) Effect on peripheral vascular resistance in an anesthetized dogs was examined. Blood pressure was measured with a pressure transducer (CP-01 mfd. by Century Technology Co.) connected to a polyethylene tube inserted into a right femoral artery of a dog anesthetized with pentobarbital, and the cardiac output was measured according to a thermodilution method by using a dilution type cardiac output counter (MLC-4200 mfd. by Nihon Kohden K. K.) and a 7F thermodilution catheter (TC-704 mfd. by Nihon Kohden K. K.) inserted into the pulmonary artery through the right femoral vein. The total peripheral vascular resistance was determined by dividing the mean blood pressure by the cardiac output. NKH-477 was dissolved in a physiological saline and infused into a right cephalic vein at rates of 0.15, 0.3 and 0.6 μg/kg/min (flow rate: 0.2 ml/min) for 2 hours by using a continuous injection pump (Model 975C mfd. by Harvard Corp.). For the control, physiological saline was similarly infused at a rate of 0.2 ml/min.
# femoral blood flow = experiment: Effect on femoral blood flow in anesthetized dogs; format: in vivo, dog; conditions: for Increase in femoral blood flow rate: mean ± SE
# Procedure: (1) Effect on femoral blood flow in anesthetized dogs was tested.
# A non-cannulating probe (FF-030T mfd. by Nihon Kohden K. K.) of an electromagnetic flow meter (MFV-2100 mfd. by Nihon Kohden K. K.) was placed around the left femoral artery of a dog anesthetized with pentobarbital to measure femoral bloow flow rate. The femoral blood flow rate was recorded on an ink-written recorder (WI-681G by Nihon Kohden K. K.).
# NKH-477 was dissolved in a physiological saline and injected into the right cephalic vein through a Nelaton's tube.
# [3] = tested on: NB-1 cells (a human neuroblastoma strain); experiment: Differentiation inducing effect for NB-1 cells; format: cell-based; conditions: 4-hour incubation
# Procedure: The differentiation inducing effect for the NB-1 cells (a human neuroblastoma strain: cell strain derived from neuroblastoma generated in infantile adrenal gland) was examined. The NB-1 cells were applied to a 96-well plate at a rate of 2×10^3 cells/well and precultured for 3 days. After attachment and growth were stabilized, the medium (RPMI 1640+10% fetal calf serum+SM.PC) was exchanged and a 10 μl solution of each test compound was added. Then, the cells were kept under constant observation to determine the occurrence or non-occurrence of differentiation. 2 mM (1.037 mg/ml) of dibutyryl cAMP dissolved in RPMI 1640 was used as positive control. NKH-477 and 14,15-dihydro-6-(3-dimethylaminopropionyl)forskolin hydrochloride were dissolved in a physiological saline. Forskolin was dissolved in DMSO and diluted with a physiological saline. The criterion for judgment of morphological change in differentiation is as follows. The figures in the parentheses are the ratio of the differentiated cells to the whole cells. It was confirmed that DMSO was totally devoid of differentiation inducing and promoting action at the concentrations used in this test.
# [4] = tested on: whole-stratum skin cut-off model (skin ulcer); experiment: Remedial effect for skin ulcer, whole-stratum skin cut-off model in rats; format: in vivo, male Wister rats; conditions: for Lesion reduction rate in whole-stratum skin cut-off model: 1 ml of 1 mg/ml applied daily, mean, n = 2
# Procedure: The remedial effect of NKH-477 for skin ulcer was ascertained by the following test.
# The abdominal region of each of the test animals--male Wister rats (10 weeks old and weighing 350-390 g) divided into groups of 2--was […] and a piece of skin of about 3 cm in diameter was cut off from said abdominal region of each test rat under anesthesia with pentobarbital (40 mg/kg, i.p.) to prepare a whole-stratum skin cut-off model, and it was used as a skin ulcer model. NKH-477 was used as the test compound (specimen) while a physiological saline was used as control. The specimen was dissolved in a physiological saline (1 mg/ml), and 1 ml of the solution was applied directly to the affected region every day, the treated part being covered with gauze fixed in position. The areas of lesion after the lapse of 1 day, 2 days, 3 days and 5 days from start of application of the specimen solution were measured by a digitizer to determine the lesion reduction rate, from which the skin ulcer curative effect of the test compound was evaluated.
structure (smiles),measurement,setting,value
"C=C[C@@]1(C)CC(=O)[C@]2(O)[C@@]3(C)[C@@H](O)CCC(C)(C)[C@@H]3[C@H](OC(=O)CCN(C)C)[C@H](OC(C)=O)[C@@]2(C)O1 [NKH-477, 6-(3-dimethylaminopropionyl)forskolin hydrochloride]",Collagen-induced aggregation upon end of administration,[1]; before administration 70.3%,45.8%
same,"Inhibition rate, Collagen-induced aggregation",[1],38.7%
same,Change in total peripheral vascular resistance,"[2]; 0.15 μg/kg/min, 10 min from start of infusion, control 2.1 ± 1.5",-2.7 ± 2.4%
same,Change in total peripheral vascular resistance,"[2]; 0.15 μg/kg/min, 30 min after cessation of infusion, control 31.4 ± 13.9",7.4 ± 7.4%
same,Change in total peripheral vascular resistance,"[2]; 0.15 μg/kg/min, 30 min from start of infusion, control 4.0 ± 2.3",-6.2 ± 3.7%
same,Change in total peripheral vascular resistance,"[2]; 0.15 μg/kg/min, 60 min after cessation of infusion, control 29.1 ± 9.7",15.7 ± 10.4%
same,Change in total peripheral vascular resistance,"[2]; 0.15 μg/kg/min, 60 min from start of infusion, control 13.8 ± 3.4",-9.1 ± 5.7%
same,Change in total peripheral vascular resistance,"[2]; 0.15 μg/kg/min, 120 min after cessation of infusion, control 26.8 ± 12.5",12.8 ± 7.2%
same,Change in total peripheral vascular resistance,"[2]; 0.15 μg/kg/min, 120 min from start of infusion, control 20.5 ± 9.2",-5.7 ± 6.6%
same,Change in total peripheral vascular resistance,"[2]; 0.3 μg/kg/min, 10 min from start of infusion, control 2.1 ± 1.5",-3.7 ± 2.9%
same,Change in total peripheral vascular resistance,"[2]; 0.3 μg/kg/min, 30 min after cessation of infusion, control 31.4 ± 13.9",6.7 ± 7.0%
same,Change in total peripheral vascular resistance,"[2]; 0.3 μg/kg/min, 30 min from start of infusion, control 4.0 ± 2.3",-10.4 ± 3.1%
same,Change in total peripheral vascular resistance,"[2]; 0.3 μg/kg/min, 60 min after cessation of infusion, control 29.1 ± 9.7",17.1 ± 6.0%
same,Change in total peripheral vascular resistance,"[2]; 0.3 μg/kg/min, 60 min from start of infusion, control 13.8 ± 3.4",-10.2 ± 4.1%
same,Change in total peripheral vascular resistance,"[2]; 0.3 μg/kg/min, 120 min after cessation of infusion, control 26.8 ± 12.5",17.2 ± 9.2%
same,Change in total peripheral vascular resistance,"[2]; 0.3 μg/kg/min, 120 min from start of infusion, control 20.5 ± 9.2",-11.5 ± 4.7%
same,Change in total peripheral vascular resistance,"[2]; 0.6 μg/kg/min, 10 min from start of infusion, control 2.1 ± 1.5",-18.3 ± 8.6%
same,Change in total peripheral vascular resistance,"[2]; 0.6 μg/kg/min, 30 min after cessation of infusion, control 31.4 ± 13.9",-13.4 ± 7.6%
same,Change in total peripheral vascular resistance,"[2]; 0.6 μg/kg/min, 30 min from start of infusion, control 4.0 ± 2.3",-28.1 ± 5.9%
same,Change in total peripheral vascular resistance,"[2]; 0.6 μg/kg/min, 60 min after cessation of infusion, control 29.1 ± 9.7",-4.1 ± 9.1%
same,Change in total peripheral vascular resistance,"[2]; 0.6 μg/kg/min, 60 min from start of infusion, control 13.8 ± 3.4",-29.0 ± 6.4%
same,Change in total peripheral vascular resistance,"[2]; 0.6 μg/kg/min, 120 min after cessation of infusion, control 26.8 ± 12.5",11.8 ± 12.9%
same,Change in total peripheral vascular resistance,"[2]; 0.6 μg/kg/min, 120 min from start of infusion, control 20.5 ± 9.2",-28.0 ± 5.4%
same,recovery of total peripheral vascular resistance,[2]; after cessation of the infusion,substantially restored in 2 hours after cessation of the infusion
same,"total peripheral vascular resistance, course in words",[2]; i.v. infusion 0.15-0.6 μg/kg/min for 2 hours,decreased gradually after the start of infusion
same,Increase in femoral blood flow rate,"femoral blood flow; 1 μg/kg i.v., n = 6 (SE 2.9 printed)",7.6%
same,Increase in femoral blood flow rate,"femoral blood flow; 3 μg/kg i.v., n = 6 (SE 5.2 printed)",22.9%
same,Increase in femoral blood flow rate,"femoral blood flow; 10 μg/kg i.v., n = 6 (SE 17.7 printed)",61.7%
same,blood flow rate in the femoral artery,femoral blood flow; intravenous injection of 1-10 μg/kg,increased the blood flow rate in the femoral artery dose-dependently
same,Increase in femoral blood flow rate,"femoral blood flow; printed 30 μmg/kg i.v., n = 6 (SE 28.7 printed)",62.2%
same,Effect (differentiation inducing),[3]; Dose 1.56 μM,± (slight (<20%))
same,Effect (differentiation inducing),[3]; Dose 6.25 μM,++ (heavy (>80%))
same,Effect (differentiation inducing),[3]; Dose 25.00 μM,++ (heavy (>80%))
same,Effect (differentiation inducing),[3]; Dose 100.00 μM,++ (heavy (>80%))
same,Lesion reduction rate in whole-stratum skin cut-off model,"[4]; 1 day elapsed, control 26.4",31.7%
same,Lesion reduction rate in whole-stratum skin cut-off model,"[4]; 2 days elapsed, control 36.9",50.8%
same,Lesion reduction rate in whole-stratum skin cut-off model,"[4]; 3 days elapsed, control 45.5",56.4%
same,Lesion reduction rate in whole-stratum skin cut-off model,"[4]; 5 days elapsed, control 66.8",79.1%
same,curing of skin ulcer,[4]; as compared with the control,curing of skin ulcer is promoted
